According to patent publication US20250290034A1, “METHOD FOR PRODUCING NAÏVE PLURIPOTENT STEM CELLS” (KYOTO UNIVERSITY, priority 2022, published 2025):

Key:
H9EOS cells = experiment: Chemical resetting of primed H9EOS cells to naive state; EGFP-positive cells quantified on Day 14 by flow cytometry; assay type: cell-based, human; conditions: for resetting efficiency with respect to chemical: VPA-free cRM-1, miR-98-5p transfected Day 1 combined with BMP2 or BMP4 added Day 2 (FIG. 12); for BMP activation judged from resetting efficiency standardized to Chemical only: 1, 5 or 10 μM added to VPA-containing cRM-1 on Days 3-5 (FIG. 10, 11)
Procedure: After collecting H9EOS and H9EOS (NK) cells and measuring the cell count in the same manner as for subculturing, they were diluted with AK02N medium containing Y-27632 (Nacalai Tesque, 08945-84) and iMatrix-511 silk (Nippi, 387-10131) (culture medium for primed pluripotent stem cells) and seeded on a multiwell plate (modified method of G. Guo, et. al., 144, 2748-2763 (2017)). The medium was exchanged with AK02N on Day 1, with culturing in cRM-1 (NDiff 227 (Takara, Y40002) containing 1 μM PD0325901, 10 ng/ml hLIF, 1 mM VPA) or VPA-free cRM-1 (culture medium for naive pluripotent stem cells) from Day 2 to Day 5, followed by culturing up to Day 14 in cRM-2 (NDiff 227 containing 1 μM PD0325901, 10 ng/ml hLIF, 2 μM Go6983, 2 μM XAV939). The resetting efficiency was quantified by counting the cell count using a flow cytometer, with the EGFP-expressing cells as naive cells.
The mimic used for each miRNA was mirVana miRNA Mimic (Thermo Fisher Scientific). A control, mirVana miRNA Mimic, Negative Control (Thermo Fisher Scientific, 4464058) was also used. Introduction was carried out on either Day 1, 2, 3 or 4, or a combination thereof, during the normal course of resetting, using Lipofectamine RNAiMAX Transfection Reagent (Thermo Fisher Scientific, 13778075) as the miRNA mimic. Culturing was then carried out according to common resetting protocol, and the EGFP-positive cells were quantified on Day 14 using a flow cytometer.
On Day 1 of the resetting protocol shown in FIG. 2, the 22 plasmids were used, either alone or as a mixture of the 22 plasmids minus one each, for transfection together with the transposase-expressing plasmid (pCAG-PBase), using Lipofectamine Stem Transfection Reagent (Thermo Fisher Scientific, STEM00003). Doxycycline was added at a final concentration of 250 ng/ml to cRM-1 on Days 2 to 5 to induce gene expression. Culturing was then carried out according to common resetting protocol, and the EGFP-positive cells were quantified on Day 14 using a flow cytometer.
[…] 2. Culturing was then carried out according to common resetting protocol, and the EGFP-positive cells were quantified on Day 14 using a flow cytometer.
To cRM-1 containing or not containing VPA there was added 10-100 ng/mL of rhBMP4 (Reprocell, 314-BP-010), on one or more of Days 1 to 5 of the resetting protocol of FIG. 2. Culturing was then carried out according to common resetting protocol, and the EGFP-positive cells were quantified on Day 14 using a flow cytometer.
On Day 1 of the resetting protocol of FIG. 2, one siRNA from among NR6A1, TRIM71, LRIG1, DNMT3B, IGF2BP1, CACHD1, PCDH8, L1TD1, SFRP1, VASH2, LIN28B, USP44, MAPK10, DICER1, DPH3, PRTG, MAPK6, HMGA2, LINC01356 (n491112) and LINC01356 (n549768) (all purchased from Horizon Discovery/Dharmacon) was introduced using Lipofectamine RNAiMAX Transfection Reagent (Thermo Fisher Scientific, 13778075). Culturing was then carried out according to common resetting protocol, and the EGFP-positive cells were quantified on Day 14 using a flow cytometer.

[1] = test system: AdiPS iPS cells and H1, H9EOS and H9 ES cells; experiment: Resetting efficiency by SUSD2 staining and flow cytometry; assay type: cell-based, human; conditions: all cell lines; miR-98-5p mimic Day 1 or BMP4 Day 2; VPA-containing cRM-1; Day 14 (FIG. 16)
Procedure: AccuMax was added to the cells on Day 14 of the resetting protocol of FIG. 2, and the mixture was incubated at 37° C. for about 10 to 15 minutes, after which the cells were detached. They were then suspended in 1% BSA-PBS to prevent nonspecific antibody binding, and after 30 minutes of blocking on ice, SUSD2 antibody was mixed with the cell suspension to a final concentration of 1:500, reaction was conducted for 30 minutes on ice and the mixture was rinsed with PBS, after which measurement was performed with a flow cytometer.
FIG. 16 is a graph showing resetting efficiency in culturing with VPA-containing cRM-1, using AdiPS iPS cells and H1, H9EOS and H9 ES cells. With mimic_ctrl and mimic-98-5p, cells were transfected with control mimic or miR-98-5p mimic on Day 1, culturing was carried out in VPA-containing cRM-1 from Day 2 to Day 4, and culturing was in cRM-2 from Day 5 to Day 14. For BMP-4, the BMP4 was added to VPA-containing cRM-1 on Day 2 without transfection of cells with control mimic or miR-98-5p mimic, for culturing up to Day 4, and then culturing was in cRM-2 from Day 5 to Day 14. […]

| Compound | resetting efficiency with respect to chemical (H9EOS cells; H9EOS) | percentage of SUSD2-positive cells [1] | BMP activation judged from resetting efficiency standardized to Chemical only (H9EOS cells; H9EOS) | also measured |
| --- | --- | --- | --- | --- |
| miR-98-5p: let-7 family miRNA mimic (mirVana), sequence UGAGGUAGUAAGUUGUAUUGUU, SEQ ID 1 (listed as RNA, chemistry not given here; listed as Homo sapiens) | increase | tended to increase |  | resetting efficiency (H9EOS cells; H9EOS, miR-98-5p transfected Day 1 in addition to BMP2 or BMP4 on Day 2, VPA-containing cRM-1 (FIG. 12)): tended to further increase; resetting efficiency (EGFP-positive cells) (H9EOS cells; H9EOS, miRNA mimic transfected on Day 1, cRM-1 containing VPA, Day 14 (FIG. 3, FIG. 4)): significantly high |
| O=C(/C=C/c1ccc(O)cc1)c1ccc(O)cc1O [isoliquiritigenin] |  |  | capable of activating BMP |  |
| Brc1ccc(CSc2nc3ccccc3o2)cc1 [SB-4] |  |  | capable of activating BMP |  |
| BMP4: recombinant human bone morphogenetic protein BMP4 (Reprocell, 314-BP-010) | increase | tended to increase |  | resetting efficiency (GFP-positive cells) (H9EOS cells; H9EOS transfected with miR-98-5p Day 1, BMP4 added earlier (Day 0/1) with Wnt inhibitor (IWP mix, 1 μM) simultaneously or before, VPA-containing cRM-1 (FIG. 17)): maintaining the resetting efficiency; resetting efficiency compared to chemical (H9EOS cells; H9EOS, BMP added to medium on Day 2, VPA-containing cRM-1 (FIG. 12)): highly significant increase; resetting efficiency (H9EOS cells; H9EOS, rhBMP4 added on Day 0 (FIG. 12, 13)): lower |
